Measured values from patent publication US20130202629A1, “USES OF PHOSPHOLIPID CONJUGATES OF SYNTHETIC TLR7 AGONISTS” (The Regents of the University of California, priority 2010, published 2013).

Tests used:
TLR7 [1] = test: IL-12 and IL-6 induction in BMDM from wild type and TLR7 deficient mice; type: cell-based, mouse; conditions: BMDM from TLR7 deficient (TLR7-KO) mice
[2] = test system: C57BL/6 mice or caspase 1 deficient; test: Induction of bladder inflammation by intravesical treatment; type: in vivo, mouse; conditions: intravesical 150 nmoles
Excerpt: C57BL/6 mice or caspase 1 deficient were intravesically treated with 150 nmoles 1V270 or vehicle alone three times at two-day intervals. One set of mice was sacrificed twenty-four hours after the first treatment (FIG. 7). Another set of mice was sacrificed twenty-four hours after the third treatment. […] This inflammation was not detected in the caspase 1 deficient mice.

A/J mice = test: Local (BALF) and systemic cytokine induction after intranasal administration; type: in vivo, mouse
Protocol: 1V270 induces local inflammation by pulmonary administration. To study the ability of phospholipid conjugated TLR7 to initiate the local inflammation, 6 to 8-week old female A/J mice were intranasally administered with 1V270 (0.5, 1, 2 or 4 nmol per animal) in 5% DMSO in PBS. Mice were sacrificed two hours after the administration and serum and bronchial lavage fluid (BALF) were collected. The levels of IL-6, IL-12 and TNFα were determined by Luminex beads assay.
A/J mice received 10 nmol/animal 1V270 intranasally and BALF were collected 24, 48, and 72 hours after the administration. 1V270 could induce IL-12 and TNFα up to 48 hours (FIG. 10).
BALF and plasma were collected 24 hours later and cytokine levels determined by multiplex luminex assay.

TLR7 [3] = target: T1, TLR7 (Mus musculus, UniProt P58681); test: In vitro cytokine induction (TNF-alpha, IL-6, IL-12; ELISA) in murine macrophages: RAW264.7 cells and BMDM; type: cell-based; conditions: normalized to the molar level of the unconjugated agonist (SM)
T1 construct: BMDM were prepared from C57BL/6 and TLR7 deficient mice; endogenous in cells; host or cells: RAW264.7 (ATCC); bone marrow derived macrophages from C57BL/6 mice
T1 sequence (P58681 27-1050): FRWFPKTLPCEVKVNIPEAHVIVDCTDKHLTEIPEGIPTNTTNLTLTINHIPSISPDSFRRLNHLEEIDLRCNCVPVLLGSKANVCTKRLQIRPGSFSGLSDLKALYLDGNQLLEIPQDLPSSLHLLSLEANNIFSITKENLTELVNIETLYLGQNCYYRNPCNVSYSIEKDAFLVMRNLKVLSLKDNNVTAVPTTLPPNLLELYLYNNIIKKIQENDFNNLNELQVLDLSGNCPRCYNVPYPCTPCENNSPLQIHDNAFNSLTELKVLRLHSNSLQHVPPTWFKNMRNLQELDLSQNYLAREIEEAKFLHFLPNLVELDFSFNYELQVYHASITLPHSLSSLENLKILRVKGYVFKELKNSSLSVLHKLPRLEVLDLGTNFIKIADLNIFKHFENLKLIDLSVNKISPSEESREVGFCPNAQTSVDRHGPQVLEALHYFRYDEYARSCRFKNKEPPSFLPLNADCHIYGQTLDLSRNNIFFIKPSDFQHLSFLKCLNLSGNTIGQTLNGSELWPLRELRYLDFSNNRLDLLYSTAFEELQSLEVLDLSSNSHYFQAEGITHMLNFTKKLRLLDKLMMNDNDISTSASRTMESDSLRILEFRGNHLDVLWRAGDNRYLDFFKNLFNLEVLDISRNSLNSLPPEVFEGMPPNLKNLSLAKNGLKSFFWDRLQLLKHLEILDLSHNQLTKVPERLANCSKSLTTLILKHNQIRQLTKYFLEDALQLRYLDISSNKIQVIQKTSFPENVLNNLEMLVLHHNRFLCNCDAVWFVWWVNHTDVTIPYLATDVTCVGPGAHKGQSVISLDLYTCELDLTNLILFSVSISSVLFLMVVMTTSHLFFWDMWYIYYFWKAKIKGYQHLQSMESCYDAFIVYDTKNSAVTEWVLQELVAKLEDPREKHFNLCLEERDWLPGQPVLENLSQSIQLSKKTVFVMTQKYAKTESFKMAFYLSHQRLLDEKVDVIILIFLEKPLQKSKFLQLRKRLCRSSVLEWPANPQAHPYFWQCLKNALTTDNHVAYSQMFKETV
Protocol: In vitro measurements of cytokine induction were performed using the mouse leukemic monocyte macrophage cell line, RAW264.7. […] BMDM were prepared from C57BL/6 and TLR7 deficient mice as described in Wu, C. C et al., “Immunotherapeutic activity of a conjugate of a Toll-like receptor 7 ligand”, Proc. Natl. Acad. Sci. USA, 104:3990 (2007).
In general, RAW264.7 cells or BMDM were incubated with various concentrations of conjugates for 18 hours at 37° C., 5% CO2 and culture supernatants were collected. The levels of cytokines (IL-6, IL-12 or TNF-α in the supernatants were determined by ELISA (BD Biosciences Pharmingen, La Jolla, Calif.) (Cho, H. J et al., “Immunostimulatory DNA-based vaccines induce cytotoxic lymphocyte activity by a T-helper cell-independent mechanism” [see comments], Nat. Biotechnol., 18:509 (2000)), and the results presented in FIGS. 2A-D. Data are mean±SEM of triplicates and are representative of three independent experiments. Minimum detection levels of these cytokines were 15 pg/mL.
TNFα levels were measured (see FIG. 2A) by incubating approximately 1×10^6/mL RAW 264.7 cells with the various conjugates or controls, as described above. IL-6 and IL-12 levels were measured (see FIGS. 2B-D) by incubating 0.5×10^6/mL BMDM with the various conjugates or controls, as described above. […]

With `CCCCCCCC/C=C\CCCCCCCC(=O)OCC(COP(=O)(O)OCCNC(=O)c1ccc(Cn2c(=O)[nH]c3c(N)nc(OCCOC)nc32)cc1)OC(=O)CCCCCCC/C=C\CCCCCCCC` (centres unmarked) [Compound 6, 2-(4-((6-amino-2-(2-methoxyethoxy)-8-oxo-7H-purin-9(8H)-yl)methyl)benzamido)ethyl 2,3-bis(oleoyloxy)propyl phosphate] the “IL-12 and IL-6 induction in TLR7 deficient BMDM” value (TLR7 [1]) was “little or no IL-12 and IL-6”, the “bladder inflammation (mononuclear cell infiltration)” value ([2]; C57BL/6 mice, three times at two-day intervals) was “infiltration of mononuclear cells were observed and increased after the third treatment” and the “bladder inflammation in caspase 1 deficient mice” value ([2]; caspase 1 deficient mice) was “not detected”. For the same compound, the “persistence of IL-12 and TNFα induction in BALF” value (A/J mice; i.n. 10 nmol/animal) was “up to 48 hours”, the “local proinflammatory cytokines (IL-6, IL-12, TNFα) in BALF” value (A/J mice; i.n. 2 to 4 nmol in 5% DMSO in PBS, two hours after administration) was “induced local proinflammatory cytokines in the BALF” and the “localized versus systemic cytokine release” value (A/J mice; i.n., BALF and plasma 24 hours later) was “promoted localized cytokine release with minimal systemic side effects”. The “BALF cytokine levels compared with serum” value (A/J mice; i.n., two hours after administration) was “higher than those in the serum” and the “potency as cytokine inducer relative to the unconjugated agonist” value (TLR7 [3]) was 10 fold.
